Data reported in patent US9802929B2, “Benzo five-membered nitrogen heterocyclic piperidine or piperazine derivatives and preparation methods and pharmaceutical compositions thereof” (Shenyang Haiwang Biotechnology Co., Ltd., priority 2012, dated 2017).

Columns and labels:
α1 receptors = assay: Antagonism of α receptor agonist (noradrenaline / phenylephrine) cumulative contraction of rabbit aorta, pA2; details: for PA2 value against Phenylephrine contraction: Phenylephrine cumulative contraction; for PA2 value against NA contraction: noradrenaline (NA) cumulative contraction
Source text: (§1) Cut the chest open quickly after stunning, strip out the descending aorta, then after removing the surrounding connective tissue and adipose tissue (if performed serotonin receptor antagonist experiments, endothelial cells should be removed using a smooth stainless steel bars), cut the vessels into 3-5 mm vascular ring, then pass the steel hook through the blood vessel ring, with one end is fixed to the vent hook and the other end connected to the tension transducer, then place the specimens into bath tube containing 20 mL of nutrient solution, and record tension change by tension transducer. Maintain tube temperature at 37±0.5° C., and pass bubbles (95% O2+5% CO2) into the solution as a speed of 1-2 bubbles/minute. Place an initial load of 1.5 g on the rings, and change nutrient every 20 minutes, then balance for 2 hours and start test after baseline readings are stabilized.
After the tension is stabilized, record a certain length of the curve, and add NA (10^−8-10^−4 mol/L) to the tube until a maximum response is achieved, and then record the curve. Then wash the specimen with K—H solution repeatedly, balance for 1 h, add compound II-36 (3×10^−7 mol/L), and 20 minutes later, add NA following a same procedure. Mark NA contraction as ordinate using maximum response as 100% base. […] The larger the PA2 value, the stronger the antagonist effect. It is calculated based on the values of the attached figures by software.
After the tension is stabilized, record a certain length of the curve, and add NA (10^−8-10^−4 mol/L) to the tube until a maximum response is achieved, and then record the curve. Then wash the specimens repeatedly with K—H solution, and refresh K—H solution every 20 minutes, and balance for 60 minutes to allow baseline values are stabilized; then add doxazosin (10^−7 mol/L) and after 15 minutes, add NA in the same way (10^−8-6×10^−5 mol/L). Mark NA contraction as ordinate using maximum response as 100% base. […] The PA2 value of positive control doxazosin is 7.52±0.04 against NA contraction of rabbit aorta.
After the tension is stabilized, record a certain length of the curve, and add NA (3×10^−7-6×10^−5 mol/L) to the tube until a maximum response is achieved, and then record the curve. Then wash the specimen with K—H solution repeatedly, balance for 1 h, add compound II-65 (3×10^−6 mol/L), and 20 minutes later, add NA (3×10^−7-3×10^−4 mol/L) following a same procedure. Mark NA contraction as ordinate using maximum response as 100% base. […] PA2 value of compound II-65 is 6.02±0.13 against NA contraction effect on rabbit aorta.
After above procedures, wash the specimen repeatedly with K—H solution, balance for 1 hour, add doxazosin (10^−7 mol/L), and add NA in the same way after 15 minutes. Mark NA contraction as ordinate using maximum response as 100% base. […] The PA2 value of positive control doxazosin is 7.16±0.24 against NA contraction of rabbit aorta.
After the tension is stabilized, record a certain length of the curve, and add Phenylephrine (10^−6-6×10^−3 mol/L) to the tube until a maximum response is achieved, and then record the curve. Then wash the specimen with K—H solution repeatedly, balance for 1 h, add compound II-68 (3×10^−8 mol/L), and 20 minutes later, add Phenylephrine following a same procedure. Mark Phenylephrine contraction as ordinate using maximum response as 100% base. […] PA2 value of compound II-68 is 8.45±0.03 against Phenylephrine contraction effect on rabbit aorta.

SD rats = assay: Effect on blood pressure of urethane-anesthetized SD rats; assay type: in vivo; details: 4.0 mg/kg orally
Protocol: Four SD rats were anesthetized with urethane ([…]); after vital signs were stable, measure blood pressure through carotid artery cannulation. After blood pressure is stabilized, compound II-36 was administered orally (4.0 mg/kg, body weight), and blood pressure changes with time were recorded; study results are shown in Table 4, 5 and 6.

Kunming mice = assay: Bone marrow micronucleus test; details: mouse, in vivo
Protocol: After four days of continuous administration, perform bone marrow micronucleus test on the 5th day.
Positive contro, Cyclophosphamide 60 mg/kg/day; negative control, saline solution 0.1 ml/10 g/day. After four days of continuous administration, perform bone marrow micronucleus test on the 5th day.
The mice were sacrificed by cervical dislocation, and quickly stripped out of the femur and sternum;
blood and muscles were removed, epiphysis was cleaned; then sternum bone marrow was transfer with a hemostat squeeze onto clean slides with drops of calf serum or wash the femoral the marrow with fetal calf serum directly onto clean slides; after mixing, adjust slides well; then put the adjusted and aired slide into a staining jar filled with methanol, and allow to fix for 15 minutes; and then take it out and place in air until dry out; then, use freshly prepared Giemsa application solution (one sample of Giemsa stock solution and nine samples of phosphate buffer pH 6.8), stained for 10 minutes to wash away slide dye with small stream of water, and then observe under a microscope after it is dried.

5-HT2A receptors = assay: Antagonism of 5-HT cumulative contraction of rabbit aorta, pA2
Source text: as §1
After the tension is stabilized, record a certain length of the curve, and add 5-HT (10^−7-3×10^−4 mol/L) to the tube until a maximum response is achieved, and then record the curve. Then wash the specimen with K—H solution repeatedly, balance for 1.5 h, add compound II-36 (3×10^−6 mol/L), and 20 minutes later, add 5-HT following a same procedure. Mark 5-HT contraction as ordinate using maximum response as 100% base. […]

[1] = time after administration 90, n = 4

Compound | PA2 value against Phenylephrine contraction (α1 receptors) | PA2 value against NA contraction (α1 receptors) | hypotensive effect (in words) (SD rats) | time until blood pressure recovered to the level before administration (SD rats) | mean arterial pressure (MAP) (SD rats; time after administration 0, n = 4) | mean arterial pressure (MAP) (SD rats; time after administration 15, n = 4) | mean arterial pressure (MAP) (SD rats; time after administration 30, n = 4) | mean arterial pressure (MAP) (SD rats; time after administration 60, n = 4) | Systolic blood pressure (SBP) (SD rats; [1]) | mean arterial pressure (MAP) (SD rats; [1]) | mean arterial pressure (MAP) (SD rats; time after administration 120, n = 4) | mean arterial pressure (MAP) (SD rats; time after administration 150, n = 4) | mean arterial pressure (MAP) (SD rats; time after administration 180, n = 4) | mean arterial pressure (MAP) (SD rats; time after administration 210, n = 4) | polychromatic erythrocytes with micronucleus (Kunming mice; both, Kunming, 4 days) | bone marrow micronucleus test result (Kunming mice) | PA2 value against 5-HT contraction (5-HT2A receptors)
FC(F)(F)c1cccc(N2CCN(CCCCn3cnc4ccccc43)CC2)c1 [Compound II-36, 1-(4-(4-(3-trifluoromethylphenyl)piperazin-1-yl)butyl)-1H-benzimidazole] | 7.37±0.08 | 7.37±0.08 | significant hypotensive effect | 3.5 h | 91.50 mmHg | 73.40 mmHg | 74.52 mmHg | 72.77 mmHg | 98.71 mmHg | 68.81 mmHg | 83.12 mmHg | 84.47 mmHg | 84.83 mmHg | 88.54 mmHg | 2.0±0.333 ‰ | negative | 
FC(F)(F)c1cccc(N2CCN(CCCCn3nnc4ccccc43)CC2)c1 [Compound II-65, 1-(4-(4-(3-trifluoromethylphenyl)piperazin-1-yl)butyl)-1H-benzotriazole] |  | 6.02±0.13 |  |  |  |  |  |  |  |  |  |  |  |  |  |  | 6.726±0.089
c1ccc2c(c1)nnn2CCCCN1CCN(c2nsc3ccccc23)CC1 [Compound II-68, 3-(4-(4-(1H-benzotriazol-1-yl)butyl)piperazin-1-yl)benzisothiazole] | 8.45±0.03 |  |  |  |  |  |  |  |  |  |  |  |  |  |  |  | 8.86±0.14
